Experimental data published in ChEMBL document CHEMBL5608161, “Identification of 4-(6-((2-methoxyphenyl)amino)pyrazin-2-yl)benzoic acids as CSNK2A inhibitors with antiviral activity and improved selectivity over PIM3” (Bioorg Med Chem Lett, 2024).
Activity calls are given as the source filed them. The rule behind the calls is not given here.

How the values were obtained:
Murine hepatitis virus = experiment: microbe, parasite or virus in culture; conditions: Murine coronavirus, DB
cells = conditions: Homo sapiens, HEK293
Description: Inhibition of Nano Luc-fused CSNK2A (unknown origin) expressed in HEK293 cells using NanoGlo as substrate by NanoBRET In-cell target engagement assay

HEK293 = experiment: Inhibition of Nano Luc-fused CSNK2A (unknown origin) expressed in HEK293 cells using NanoGlo as substrate at 10 uM by NanoBRET In-cell target engagement assay; format: cell-based; conditions: Homo sapiens
[1] = molecular target: Death-associated protein kinase 3 (Homo sapiens) (UniProt O43293); experiment: Binding affinity to DAPK3 (unknown origin) assessed as melting temperature by thermal shift assay
[2] = molecular target: BMP-2-inducible protein kinase (Homo sapiens) (UniProt Q9NSY1); experiment: Binding affinity to BIKE (unknown origin) assessed as melting temperature by thermal shift assay
[3] = molecular target: T1, Dual specificity tyrosine-phosphorylation-regulated kinase 2 (Homo sapiens) (UniProt Q92630); experiment: Binding affinity to DYRK2 (unknown origin) assessed as melting temperature by thermal shift assay
T1 sequence (whole entry): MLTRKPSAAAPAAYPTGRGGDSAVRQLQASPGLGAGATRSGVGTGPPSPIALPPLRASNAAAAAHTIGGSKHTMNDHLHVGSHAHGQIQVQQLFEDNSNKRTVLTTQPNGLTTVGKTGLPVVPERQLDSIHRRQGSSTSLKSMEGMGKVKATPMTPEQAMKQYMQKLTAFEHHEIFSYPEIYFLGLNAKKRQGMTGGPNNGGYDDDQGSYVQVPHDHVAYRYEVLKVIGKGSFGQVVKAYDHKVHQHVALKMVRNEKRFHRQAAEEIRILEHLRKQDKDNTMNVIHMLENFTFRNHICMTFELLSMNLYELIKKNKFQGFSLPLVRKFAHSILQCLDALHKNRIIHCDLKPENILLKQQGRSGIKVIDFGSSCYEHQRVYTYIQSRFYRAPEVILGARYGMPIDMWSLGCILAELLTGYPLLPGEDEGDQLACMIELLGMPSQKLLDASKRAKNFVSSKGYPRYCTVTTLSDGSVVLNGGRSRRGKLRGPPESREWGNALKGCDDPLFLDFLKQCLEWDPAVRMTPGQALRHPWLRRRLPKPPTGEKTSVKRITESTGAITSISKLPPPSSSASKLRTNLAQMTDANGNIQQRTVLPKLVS

[4] = molecular target: T2, Mitogen-activated protein kinase 15 (Homo sapiens) (UniProt Q8TD08); experiment: Binding affinity to MAPK15 (unknown origin) assessed as melting temperature by thermal shift assay
T2 sequence (whole entry): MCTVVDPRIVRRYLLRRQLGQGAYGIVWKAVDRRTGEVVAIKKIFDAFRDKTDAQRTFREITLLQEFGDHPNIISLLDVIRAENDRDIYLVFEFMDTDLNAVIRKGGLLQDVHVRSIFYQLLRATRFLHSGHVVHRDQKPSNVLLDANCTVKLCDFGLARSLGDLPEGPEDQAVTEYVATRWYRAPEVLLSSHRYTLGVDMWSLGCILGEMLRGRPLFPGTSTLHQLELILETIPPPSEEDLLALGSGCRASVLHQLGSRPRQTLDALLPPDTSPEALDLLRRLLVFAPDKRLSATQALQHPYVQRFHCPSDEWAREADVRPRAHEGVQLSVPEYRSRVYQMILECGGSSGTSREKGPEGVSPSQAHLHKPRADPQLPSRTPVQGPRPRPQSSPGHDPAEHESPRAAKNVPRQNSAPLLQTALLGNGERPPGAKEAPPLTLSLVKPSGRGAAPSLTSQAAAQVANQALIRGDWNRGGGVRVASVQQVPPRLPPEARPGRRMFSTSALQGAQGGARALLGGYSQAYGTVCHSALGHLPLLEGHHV

[5] = molecular target: Serine/threonine-protein kinase pim-1 (Homo sapiens) (UniProt P11309); experiment: Binding affinity to PIM1 (unknown origin) assessed as melting temperature by thermal shift assay
Chain of Serine/threonine-protein kinase pim-1 (Homo sapiens) (P11309 whole entry, looked up): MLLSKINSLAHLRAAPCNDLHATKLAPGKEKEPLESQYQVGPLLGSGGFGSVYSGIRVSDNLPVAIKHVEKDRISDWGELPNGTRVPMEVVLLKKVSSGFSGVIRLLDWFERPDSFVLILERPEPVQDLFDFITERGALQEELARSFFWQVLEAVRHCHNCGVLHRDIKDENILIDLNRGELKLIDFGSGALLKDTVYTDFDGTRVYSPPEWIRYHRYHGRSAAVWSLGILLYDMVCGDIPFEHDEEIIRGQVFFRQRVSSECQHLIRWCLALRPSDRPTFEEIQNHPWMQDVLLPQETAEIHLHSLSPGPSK

Chain of BMP-2-inducible protein kinase (Homo sapiens) (Q9NSY1 whole entry, looked up): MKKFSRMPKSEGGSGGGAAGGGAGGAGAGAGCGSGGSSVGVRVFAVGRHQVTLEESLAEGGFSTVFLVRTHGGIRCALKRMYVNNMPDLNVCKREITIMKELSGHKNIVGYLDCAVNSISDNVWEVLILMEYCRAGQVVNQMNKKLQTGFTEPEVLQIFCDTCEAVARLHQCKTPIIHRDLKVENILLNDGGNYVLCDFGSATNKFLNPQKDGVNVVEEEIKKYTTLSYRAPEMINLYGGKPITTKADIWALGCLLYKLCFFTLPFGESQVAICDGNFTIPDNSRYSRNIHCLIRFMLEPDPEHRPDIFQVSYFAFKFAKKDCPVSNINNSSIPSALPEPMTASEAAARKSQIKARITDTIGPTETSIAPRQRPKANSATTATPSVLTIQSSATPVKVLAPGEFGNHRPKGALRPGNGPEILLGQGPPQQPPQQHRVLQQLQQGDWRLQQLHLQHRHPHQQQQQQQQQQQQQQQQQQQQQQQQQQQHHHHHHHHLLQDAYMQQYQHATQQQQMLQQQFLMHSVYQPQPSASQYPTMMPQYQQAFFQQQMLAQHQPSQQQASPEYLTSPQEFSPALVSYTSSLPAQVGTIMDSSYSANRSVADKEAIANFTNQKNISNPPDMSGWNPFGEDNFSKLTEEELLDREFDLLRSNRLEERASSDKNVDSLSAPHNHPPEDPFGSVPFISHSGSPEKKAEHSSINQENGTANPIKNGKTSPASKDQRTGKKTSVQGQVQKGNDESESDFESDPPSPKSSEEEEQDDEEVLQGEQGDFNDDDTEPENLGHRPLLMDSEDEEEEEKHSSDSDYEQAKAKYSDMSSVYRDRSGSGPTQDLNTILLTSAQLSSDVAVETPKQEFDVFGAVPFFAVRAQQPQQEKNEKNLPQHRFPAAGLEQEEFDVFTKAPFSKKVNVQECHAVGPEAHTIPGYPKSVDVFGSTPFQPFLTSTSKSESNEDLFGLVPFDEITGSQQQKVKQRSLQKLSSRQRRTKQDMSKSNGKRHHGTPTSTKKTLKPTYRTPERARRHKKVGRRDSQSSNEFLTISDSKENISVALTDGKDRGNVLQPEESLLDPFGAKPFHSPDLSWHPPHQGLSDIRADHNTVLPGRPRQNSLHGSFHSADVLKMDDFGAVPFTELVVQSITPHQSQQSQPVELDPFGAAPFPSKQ
Chain of Death-associated protein kinase 3 (Homo sapiens) (O43293 whole entry, looked up): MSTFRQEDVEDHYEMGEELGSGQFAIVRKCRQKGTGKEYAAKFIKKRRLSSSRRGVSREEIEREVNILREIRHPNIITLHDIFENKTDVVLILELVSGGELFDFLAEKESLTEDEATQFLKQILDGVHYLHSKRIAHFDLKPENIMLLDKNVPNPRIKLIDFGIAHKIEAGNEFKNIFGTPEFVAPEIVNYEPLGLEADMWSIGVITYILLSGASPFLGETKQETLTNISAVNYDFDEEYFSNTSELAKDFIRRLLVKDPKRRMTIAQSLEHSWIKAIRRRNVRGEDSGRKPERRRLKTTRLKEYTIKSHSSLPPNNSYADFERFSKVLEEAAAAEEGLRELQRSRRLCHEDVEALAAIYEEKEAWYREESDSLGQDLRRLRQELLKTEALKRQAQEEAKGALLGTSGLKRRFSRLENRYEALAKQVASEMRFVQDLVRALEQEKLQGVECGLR

SMILES	IC50 (cells) [nM]	inhibition (HEK293)	other results
CC(C)C(=O)OC[C@H]1O[C@@H](n2cc/c(=N\O)[nH]c2=O)[C@H](O)[C@@H]1O [MOLNUPIRAVIR]			IC50 (Murine hepatitis virus): 1400 nM
COc1cc(-c2cncc(-n3ncc4ccc(NC(C)C)cc43)n2)ccc1C(=O)O		inactive	
CC(C)Nc1ccc2cnn(-c3cncc(-c4ccc(C(N)=O)cc4)n3)c2c1		inactive	
COc1ccc(OC(C)C)cc1Nc1cncc(-c2ccc(C(=O)O)cc2)n1			Tm [1]: > 9 °C; Tm [2]: > 9 °C; Tm [3]: > 9 °C; Tm [4]: > 9 °C; Tm [5]: > 9 °C
CC(C)Nc1ccc2cnn(-c3cncc(-c4ccc(S(N)(=O)=O)cc4)n3)c2c1		inactive	

More lines, main results first:

IC50 (cells) [nM]	SMILES	inhibition (HEK293)	other results
4020	CC(=O)Nc1ccc2cnn(-c3cncc(-c4ccc(C(=O)O)cc4)n3)c2c1		
260	CC(C)Nc1ccc2cnn(-c3cncc(-c4ccc(C(=O)O)c(Cl)c4)n3)c2c1		
2200	O=C(O)c1ccc(-c2cncc(-n3ncc4ccc(NC5CCCC5)cc43)n2)cc1		
2600	O=C(O)c1ccc(-c2cncc(-n3ncc4ccc(NCCN5CCOCC5)cc43)n2)cc1		
